Experimental findings from patent publication US10617670B2, “Synergistic auristatin combinations” (priority 2014, dated 2020) are described below.

The test system of data set [1] is subcutaneous MDA-468 tumors. Kind of data set: Xenograft efficacy. It is filed as in vivo, mouse. The settings on record: 5T4-ADC 2 mg/kg. The method, then: Female athymic nu/nu mice (18-23 g) were obtained from Charles River Laboratories, Wilmington, Mass. […] ADCs were administered based on mAb protein content at 2 or 3 mg Ab/kg on a Q4D×4 (every 4 day) schedule, with 8 to 10 mice per group. […] All procedures using mice were approved by the Pfizer Institutional Animal Care and Use Committee according to established guidelines. Time To Endpoint (time to no tumor or rate of tumor tripling) were used for comparison of drug-treated groups.

The test system of data set [2] is lung, breast cancer and ovarian cancer cell lines. Kind of data set: In vitro cytotoxic activity and combinations, cell line panel. It is filed as cell-based, human. The settings on record: agent alone. The method, then:
Cells were plated in a 96-well clear-bottomed plates (Corning) and treated with varying concentrations of compounds for 4 days. […] by using a CellTiter Glo luminescent cell viability assay kit (Promega) and measured using a Victor X3 plate reader (Perkin Elmer). The data were normalised to the control group (empty vector or DMSO). The IC50 values were defined as the concentration that causes 50% growth inhibition. IC50 values were calculated using a logistic nonlinear regression, model no. 203 with XL fit v4.2 (IDBS, Guldford, Surry, UK). All experimental points were setup in three replicate wells and independently performed in duplicate.
The effects of drug combinations were evaluated using Chou-Talalay median effect analysis (28). Cells were treated with each drug alone and in combination in two independent 96-well plates in a diagonal matrix format, and proliferation was measured by using a CellTiter Glo kit (Promega). Results were expressed as surviving fractions (fraction affected, Fa), based on the measured luminescence counts of treated samples, compared to that of untreated controls. […]
In vitro cytotoxic activity was evaluated for the 5T4-ADC or the auristatin payloads in combination with various standard of care (SOC) agents or selected signaling inhibitors in lung, breast cancer and ovarian cancer cell lines. […]

Another data set has as its system MDA-MB-361. Description: Apoptosis induction. The note with it: at 4 h, cleaved PARP. It is filed as cell-based.
Data set [3] has as its system more than 50 diverse human tumor cell lines. Kind of data set: Anti-proliferative effect in tumor cell lines. It is filed as cell-based.
The conditions of data set [4]: rat.
For data set [5], the system named is panel of 81 protein kinases and Class III PI3K family hVps34. Description: Kinase screening services (Dundee University and Invitrogen). The settings on record: 81 protein kinases and hVps34. It is filed as biochemical.
Data set [6] concerns human cancer cell lines with PI3K pathway aberrations. Description: Mouse xenograft models.
The next data set is described as follows: in vitro. The settings on record: rat, plasma.

As to `CC(=O)O[C@H]1C(=O)[C@@]2(C)[C@H]([C@H](OC(=O)c3ccccc3)[C@]3(O)C[C@H](OC(=O)[C@H](O)[C@@H](NC(=O)c4ccccc4)c4ccccc4)C(C)=C1C3(C)C)[C@]1(OC(C)=O)CO[C@@H]1C[C@@H]2O` [paclitaxel], the “regressions / CRs by day 53” value in data set [1] (paclitaxel 22.5 mg/kg) is recorded as 6/10. Moreover, the “antitumor activity of monotherapy” value in data set [1] (paclitaxel 10 mg/kg) is given as “no pronounced effect on tumor growth”.

As for `C#Cc1cccc(Nc2ncnc3cc(OCCOC)c(OCCOC)cc23)c1` [Erlotinib], the “sensitivity of most of the cell lines to the single agent” value in data set [2] is recorded as “relatively insensitive”.

`O=C(NOC[C@H](O)CO)c1ccc(F)c(F)c1Nc1ccc(I)cc1F` [PD-901]: the “sensitivity of most of the cell lines to the single agent” value in data set [2] is listed as “relatively insensitive”.

A word on the IC50: it is the concentration that gives 50% inhibition. The low end stands for greater potency in that assay, the high end for weaker potency in that assay. Regarding `CN(C)C1CCN(C(=O)c2ccc(NC(=O)Nc3ccc(-c4nc(N5CCOCC5)nc(N5CCOCC5)n4)cc3)cc2)CC1` [PF-384, 1-(4-{[4-(dimethylamino)piperidin-1-yl]carbonyl}phenyl)-3-[4-(4,6-dimorpholin-4-yl-1,3,5-triazin-2-yl)phenyl]urea], the “concentration at which apoptosis was induced” value with MDA-MB-361 came to 30 nM. The same compound showed a 50% inhibitory concentration (IC50) in data set [3] of under 0.1 µM.

The term fraction unbound denotes free concentration divided by total concentration. The low end stands for extensive binding, the high end for weak binding. `COc1ccc(-c2cc3c(C)nc(N)nc3n([C@H]3CC[C@H](OCCO)CC3)c2=O)cn1` [Compound 1A, 2-amino-8-[trans-4-(2-hydroxyethoxy)cyclohexyl]-6-(6-methoxypyridin-3-yl)-4-methylpyrido[2,3-d]pyrimidin-7(8H)-one]: the clearance entry in data set [4] is recorded as “low clearance”. Moreover, the “concentration up to which no significant inhibitory activity was observed for any of the evaluated kinases” value in data set [5] is over 10 µM. Also, the in vivo activity entry in data set [6] is on record as “has in vivo activity”. In “in vitro”, this compound yielded a fraction unbound of 0.202.
